A short description of data set [1]: Microsomal stability assay, human liver microsomes (HLM). Format: in vitro ADME. To be noted: 0.5 mg/mL protein, 1 μM substrate, 37° C. The procedure, abridged:
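Substrate depletion: 1 μM compound incubated at 37° C. with cryopreserved mouse or human liver microsomes at 0.5 mg·mL^−1 protein. Timed aliquots quenched in ice-cold organic solvent and measured by LC-MS/MS; t1/2 and CLint derived from the slope of ln % remaining versus time.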

Data set [2] is described as follows: Plasma protein binding assay, mouse plasma (mPPB). Format: in vitro ADME. The following applies: 5 μM, equilibrium dialysis 4 hours at 37° C. The procedure, abridged:
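Equilibrium dialysis of 5 μM compound in previously frozen human or mouse plasma against phosphate buffer, 4 h at 37 °C. Both chambers quantified by LC-MS/MS; % free = (1−((PC−PF)/PC))×100.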

The next data set can be described thus: FeSSIF solubility assay. Format: physicochemical. The following applies: fed state simulated intestinal fluid (FeSSIF), thermodynamic from solid, pH 5 acetate buffer, 37° C., read-out: FESSIF Sol. The procedure, abridged: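 FeSSIF (pH 5 acetate buffer, 1 mL) was added to 1.0 mg solid compound and shaken at 650 rpm and 37 °C for 24 h. After filtration, dissolved compound was quantified by LC-UV against a 250 μM calibration standard.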

For the next data set, the system named is HCT-116 cells. Description: HCT-116 CellTiter-Glo 3D cell proliferation assay. Type of data set: cell-based. The following applies: Homo sapiens. As to the method:
HCT-116 CellTiter-Glo 3D Cell Proliferation Assay
The human HCT-116 colorectal carcinoma cell line (ATCC CCL-247) endogenously expresses the KRAS^G13D mutation, which leads to enhanced survival and proliferative signaling. […] On the first day, HCT-116 cells were harvested, resuspended in growth medium (McCoys5A with Glutamax (Life Technologies 36600021) with 10% heat-inactivated fetal bovine serum (Sigma F9665)), and counted. Cells were plated in 100 μl per well in each well of a Corning 7007 96-well clear round bottom Ultra-Low Attachment plate (VWR 444-1020) to a final density of 1000 cells per well. Cells were seeded for pre- and post-treatment readouts. The cells were then incubated at 37° C. and 5% CO2 for 3 days (72 hours) to allow spheroid formation. After 72 hours, the plate seeded for a pre-treatment read was removed from the incubator to allow equilibration to room temperature for 30 minutes, before CellTitre-Glo® reagent was added to each well. The plates were incubated at room temperature for 5 minutes shaking at 300 rpm, followed by an incubation of 25 minutes on the benchtop before being read on the Envision reader (Perkin Elmer) as described below. On the same day, the cells plated for the post-treatment readout were dosed with compounds to produce a 9-point dose response, where the top concentration was 15 μM and following concentrations were at 1/2 log dilution intervals. These cells were subsequently incubated at 37° C. and 5% CO2 for another 4 days (96 hours). After 4 days, the plate was removed from the incubator to allow equilibration to room temperature for 30 minutes and treated with CellTitre Glo® reagent as stated above. […] The CellTitre Glo® reagent lyses the cells and contains luciferin and a luciferase (Ultra-Glo™ Recombinant Luciferase), which in the presence of ATP and oxygen can produce bioluminescence from luciferin. Therefore, plates were read on an EnVision reader (Perkin Elmer) and luminescence signals were recorded. Cell proliferation was determined on 4 days after dosing relative to the pre-treatment read. All data were analyzed using the Dotmatics or GraphPad Prism software packages. Inhibition of proliferation was assessed by determination of the GI50 value, which was defined as the concentration of compound required to decrease the level of cell proliferation by 50% when compared to DMSO control.

For a further data set, the system named is WiDr cells. The experiment in a line: WiDr CellTiter-Glo 3D cell proliferation assay. The following applies: Homo sapiens, read-out: 3D WiDr pGI50 (converted). Type of data set: cell-based.
[3] abbreviates: HCT-116, HCT116 cells, 3D proliferation, read-out: 3D HCT116 pGI50 (converted).

The source of these data is patent US12304912B2, “Fused bicyclic RAF inhibitors and methods for use thereof” (Jazz Pharmaceuticals Ireland Limited, priority 2020, dated 2025).

SMILES strings stand for the structures. Converted amounts (≈) assume the structure as drawn. Where two headings read alike, the source gives them in different places.

As for `CC(C)CCc1c[nH]c(C2COc3ccc(Oc4ccnc5c4CCC(=O)N5)cc3C2)n1` (stereo not drawn) [Compound 116], in data set [1], the microsomal CLint at 1 μM was found to be 277 µL/min/mg. The “mPPB (% free)” value in data set [2] stood at 0.23 % free. Further, the solubility thermodynamic at 24 h in the data set “FeSSIF solubility assay” was 311 µg/mL (≈ 720 µM). The GI50 in the data set on HCT-116 cells (setting [3]) is 66.1 nM; in the data set on WiDr cells (WiDr cells, 3D proliferation) it was 126 nM.
Taken in the same sequence, the figures for `Cc1cc(-c2c[nH]c(C3COc4ccc(Oc5ccnc6c5CCC(=O)N6)cc4C3)n2)ccn1` (stereo not drawn) [Compound 117, 5-[3-[4-(2-methyl-4-pyridyl)-1H-imidazol-2-yl]chroman-6-yl]oxy-3,4-dihydro-1H-1,8-naphthyridin-2-one] were 43.3 µL/min/mg, 2.3 % free, 1.4 µg/mL (≈ 3.09 µM), 214 nM and 708 nM.
For `COc1csc(-c2c[nH]c(C3COc4ccc(Oc5ccnc6c5CCC(=O)N6)cc4C3)n2)c1` (stereo not drawn) [Compound 122, 5-[3-[5-(4-methoxy-2-thienyl)-1H-imidazol-2-yl]chroman-6-yl]oxy-3,4-dihydro-1H-1,8-naphthyridin-2-one] the same measures were 80.3 µL/min/mg, 0.21 % free, 124 µg/mL (≈ 260 µM), 182 nM and 513 nM.
Regarding `COc1ccsc1-c1c[nH]c(C2COc3ccc(Oc4ccnc5c4CCC(=O)N5)cc3C2)n1` (stereo not drawn) [Compound 123], the microsomal CLint at 1 μM in data set [1] was 97.5 µL/min/mg. Further, the “mPPB (% free)” value in data set [2] was found to be 0.25 % free. Also, the solubility thermodynamic at 24 h in “FeSSIF solubility assay” is 156 µg/mL (≈ 330 µM). The GI50 in the data set with HCT-116 cells (setting [3]) is 40.7 nM; in the data set on WiDr cells (WiDr cells, 3D proliferation), 53.7 nM.
For `CCn1nc(C)cc1-c1c[nH]c(C2COc3ccc(Oc4ccnc5c4CCC(=O)N5)cc3C2)n1` (stereo not drawn) [Compound 124, 5-[3-[4-(2-ethyl-5-methyl-pyrazol-3-yl)-1H-imidazol-2-yl]chroman-6-yl]oxy-3,4-dihydro-1H-1,8-naphthyridin-2-one] the same measures were 65.8 µL/min/mg, 3.9 % free, 3 µg/mL (≈ 6.38 µM), 724 nM and 1450 nM.
For the compound `O=C1CCc2c(Oc3ccc4c(c3)CC(c3nc(C5CCOCC5)c[nH]3)CO4)ccnc2N1` (stereo not drawn) [Compound 132, 5-[3-(4-tetrahydropyran-4-yl-1H-imidazol-2-yl)chroman-6-yl]oxy-3,4-dihydro-1H-1,8-naphthyridin-2-one], the intrinsic clearance (microsomal CLint) at 1 μM in data set [1] came out at 20.7 µL/min/mg. In data set [2], the “mPPB (% free)” value is 10.1 % free. In addition, the solubility thermodynamic at 24 h in the data set “FeSSIF solubility assay” was 41.9 µg/mL (≈ 93.8 µM). The GI50 is 661 nM in the data set with HCT-116 cells (setting [3]) and 1150 nM in the data set on WiDr cells (WiDr cells, 3D proliferation).
`O=C(Nc1cc(Oc2ccc3c(c2)CC(c2nc(-c4ccccc4)c[nH]2)CO3)ccn1)C1CC1(F)F` (stereo not drawn) [Compound 137, 2,2-difluoro-N-[4-[3-(4-phenyl-1H-imidazol-2-yl)chroman-6-yl]oxy-2-pyridyl]cyclopropanecarboxamide]: the intrinsic metabolic clearance (microsomal CLint) at 1 μM in data set [1] was 32.6 µL/min/mg. Moreover, the “mPPB (% free)” value in data set [2] was less than 0.1 % free. For the same compound, the solubility thermodynamic at 24 h in the data set “FeSSIF solubility assay” is 73.9 µg/mL (≈ 151 µM). For the same compound, the GI50 was 70.8 nM in the data set with HCT-116 cells (setting [3]) and 126 nM with WiDr cells (WiDr cells, 3D proliferation).
For `Cc1c[nH]c(-c2cc(Oc3ccc4c(c3)CC(c3nc(-c5ccccc5)c[nH]3)CO4)ccn2)n1` (stereo not drawn) [Compound 143, 2-(4-methyl-1H-imidazol-2-yl)-4-[3-(4-phenyl-1H-imidazol-2-yl)chroman-6-yl]oxy-pyridine] the same measures were 36.1 µL/min/mg, less than 0.1 % free, 44.7 µg/mL (≈ 99.4 µM), 741 nM and 1510 nM.
Taken in the same sequence, the figures for `O=C(Cn1ccnc1)Nc1cc(Oc2ccc3c(c2)CC(c2nc(-c4ccccc4)c[nH]2)CO3)ccn1` (stereo not drawn) [Compound 144] were 27.1 µL/min/mg, 0.8 % free, 318 µg/mL (≈ 645 µM), 100 nM and 380 nM.
Taken in the same sequence, the figures for `CN1CCN(CC(=O)Nc2cc(Oc3ccc4c(c3)CC(c3nc(-c5ccccc5)c[nH]3)CO4)ccn2)CC1` (stereo not drawn) [Compound 146, 2-(4-methylpiperazin-1-yl)-N-[4-[3-(4-phenyl-1H-imidazol-2-yl)chroman-6-yl]oxy-2-pyridyl]acetamide] were 33.4 µL/min/mg, 0.7 % free, 404 µg/mL (≈ 770 µM), 380 nM and 813 nM.
As for `CN1CCC(C(=O)Nc2cc(Oc3ccc4c(c3)CC(c3nc(-c5ccccc5)c[nH]3)CO4)ccn2)CC1` (stereo not drawn) [Compound 147, 1-methyl-N-[4-[3-(4-phenyl-1H-imidazol-2-yl)chroman-6-yl]oxy-2-pyridyl]piperidine-4-carboxamide], the microsomal CLint at 1 μM in data set [1] amounted to 10.4 µL/min/mg. Moreover, the “mPPB (% free)” value in data set [2] is 0.8 % free. The solubility thermodynamic at 24 h in “FeSSIF solubility assay” is 528 µg/mL (≈ 1040 µM). The GI50 was 1380 nM in the data set on HCT-116 cells (setting [3]) and 1380 nM with WiDr cells (WiDr cells, 3D proliferation).
As to `O=C(Nc1nccc(Oc2ccc3c(c2)CC(c2nc(-c4ccccc4)c[nH]2)CO3)n1)C1CC1` (stereo not drawn) [Compound 148, N-[4-[3-(4-phenyl-1H-imidazol-2-yl)chroman-6-yl]oxypyrimidin-2-yl]cyclopropanecarboxamide], the microsomal CLint at 1 μM in data set [1] worked out at 132 µL/min/mg. In data set [2], the “mPPB (% free)” value turned out to be 0.4 % free. Also, the solubility thermodynamic at 24 h in “FeSSIF solubility assay” was 104 µg/mL (≈ 230 µM). Moreover, the GI50 was 490 nM in the data set on HCT-116 cells (setting [3]) and 1200 nM in the data set with WiDr cells (WiDr cells, 3D proliferation).
Taken in the same sequence, the figures for `O=C(CN1CCOCC1)Nc1cc(Oc2ccc3c(c2)CC(c2nc(-c4ccccc4)c[nH]2)CO3)ccn1` (stereo not drawn) [Compound 149] were 63.7 µL/min/mg, 0.14 % free, 200 µg/mL (≈ 391 µM), 851 nM and 2240 nM.
`O=C(Nc1cc(Oc2ccc3c(c2)CC(c2nc(-c4ccccc4)c[nH]2)CO3)ncn1)C1CC1` (stereo not drawn) [Compound 151, N-[6-[3-(4-phenyl-1H-imidazol-2-yl)chroman-6-yl]oxypyrimidin-4-yl]cyclopropanecarboxamide]: the microsomal CLint at 1 μM in data set [1] came to 18.3 µL/min/mg. For the same compound, the “mPPB (% free)” value in data set [2] is recorded as less than 0.1 % free. In “FeSSIF solubility assay”, the solubility thermodynamic at 24 h is 86.6 µg/mL (≈ 191 µM). Further, the GI50 is 380 nM in the data set with HCT-116 cells (HCT-116, read-out: 3D HCT116 pGI50 (converted)) and 1150 nM with WiDr cells (WiDr).
Take `O=C(CN1CCCC1)Nc1cc(Oc2ccc3c(c2)CC(c2nc(-c4ccccc4)c[nH]2)CO3)ccn1` (stereo not drawn) [Compound 152]: the microsomal CLint at 1 μM in data set [1] stood at 29 µL/min/mg. Moreover, the “mPPB (% free)” value in data set [2] is given as 0.47 % free. Further, the solubility thermodynamic at 24 h in the data set “FeSSIF solubility assay” is 997 µg/mL (≈ 2010 µM). Besides, the GI50 in the data set with HCT-116 cells (setting [3]) was 832 nM; in the data set with WiDr cells (WiDr cells, 3D proliferation) it was 5620 nM.
Taken in the same sequence, the figures for `O=C(CN1CC(O)C1)Nc1cc(Oc2ccc3c(c2)CC(c2nc(-c4ccccc4)c[nH]2)CO3)ccn1` (stereo not drawn) [Compound 153] were 19.2 µL/min/mg, 0.6 % free, 336 µg/mL (≈ 675 µM), 427 nM and 5620 nM.
Taken in the same sequence, the figures for `O=C(Cn1cncn1)Nc1cc(Oc2ccc3c(c2)CC(c2nc(-c4ccccc4)c[nH]2)CO3)ccn1` (stereo not drawn) [Compound 154] were 22.8 µL/min/mg, 0.7 % free, 171 µg/mL (≈ 346 µM), 61.7 nM and 661 nM.
For `O=C(Nc1cc(Oc2ccc3c(c2)CC(c2nc(-c4ccc(F)cc4)c[nH]2)CO3)ccn1)C1CC1` (stereo not drawn) [Compound 155, N-[4-[3-[4-(4-fluorophenyl)-1H-imidazol-2-yl]chroman-6-yl]oxy-2-pyridyl]cyclopropanecarboxamide] the same measures were 28.9 µL/min/mg, 0.1 % free, 124 µg/mL (≈ 263 µM), 100 nM and 631 nM.
